Measured values reported in PubChem BioAssay (NCI).
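Cells were grown in 96-well plates and exposed to each compound for 48 hours at five concentrations; endpoints were interpolated linearly between bracketing concentrations, or set to the highest concentration if not reached. At the GI50, growth is halved. At the TGI there is no net growth.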

How the values were obtained:
Experiment in all cases: NCI tumour cell line growth inhibition, 48 h
HS 578T breast = system: HS 578T breast
RXF-631 renal = system: RXF-631 renal
DLD-1 colon = system: DLD-1 colon
HOP-18 NSCLC = system: HOP-18 NSCLC
KM20L2 colon = system: KM20L2 colon
LXFL 529 NSCLC = system: LXFL 529 NSCLC
M19-MEL melanoma = system: M19-MEL melanoma
XF 498 CNS = system: XF 498 CNS
MDA-N = system: MDA-N

N#C/C(C(=S)Nc1ccccc1)=C1/NN=C2c3ccccc3C(=O)NN21
GI50 (HS 578T breast): 22.7 µM | TGI (HS 578T breast): 57.2 µM

Nc1c(-c2ccc(Br)cc2)[n+]([O-])c2ccccc2[n+]1[O-]
TGI (RXF-631 renal): > 100 µM | TGI (DLD-1 colon): > 100 µM | TGI (HOP-18 NSCLC): > 100 µM | TGI (KM20L2 colon): > 100 µM | TGI (LXFL 529 NSCLC): > 100 µM

CCOC(=O)c1c(C)n(Cc2ccc(OC)cc2)c2c1cc(O)c1[nH]c3c(c12)CCCC3
GI50 (HS 578T breast): 3.26 µM | TGI (HS 578T breast): 21.8 µM

COc1cccc(NCc2nnc(Nc3ccc(Cl)cc3)c3ccccc23)c1
GI50 (HS 578T breast): 2.9 µM | TGI (HS 578T breast): 11.5 µM

COC(=O)C1=C(c2ccc3c(c2)OCO3)O[C@H](c2ccc3c(c2)OCO3)[C@H]1COC(C)=O
TGI (DLD-1 colon): > 100 µM | TGI (HOP-18 NSCLC): > 100 µM | TGI (KM20L2 colon): > 100 µM | TGI (M19-MEL melanoma): > 100 µM | TGI (LXFL 529 NSCLC): > 100 µM | TGI (XF 498 CNS): > 100 µM

CCCCNC(=O)NS(=O)(=O)c1ccc(N2N=C(c3ccc(C)cc3C)CC2c2ccc(N(C)C)cc2)cc1 (stereo unspecified)
GI50 (HS 578T breast): 3.95 µM | TGI (HS 578T breast): > 100 µM

CC(C)(C)OC(=O)N(CCCN(CCn1c2c(c3ccccc3c1=O)C(=O)c1ccccc1-2)C(=O)OC(C)(C)C)CCn1c2c(c3ccccc3c1=O)C(=O)c1ccccc1-2
GI50 (HS 578T breast): 41.1 µM | TGI (HS 578T breast): > 50 µM

Cc1cc(NS(=O)(=O)c2ccc(NC(=O)c3cccc4c(=O)c5ccccc5[nH]c34)cc2)no1
TGI (DLD-1 colon): > 100 µM | TGI (HOP-18 NSCLC): 28.2 µM | TGI (KM20L2 colon): > 100 µM | TGI (M19-MEL melanoma): > 100 µM | TGI (LXFL 529 NSCLC): 89.2 µM | TGI (XF 498 CNS): 55.4 µM

C[C@]12CC[C@@H]3c4ccc(O)cc4C[C@@H](CCCCCCCCCS(=O)CCCC(F)(F)C(F)(F)F)[C@H]3[C@@H]1CC[C@@H]2O (stereo partly specified)
GI50 (HS 578T breast): > 100 µM | TGI (HS 578T breast): > 100 µM

CC12CCCC(CC(=O)c3[nH]c4ccccc4c31)C2 (stereo unspecified)
GI50 (HS 578T breast): 0.936 µM | TGI (HS 578T breast): 37.8 µM

COc1cc(Cc2cc(OC)c(OC)c(OC)c2)ccc1O
TGI (DLD-1 colon): > 100 µM | TGI (KM20L2 colon): > 100 µM | TGI (M19-MEL melanoma): > 100 µM | TGI (LXFL 529 NSCLC): > 100 µM | TGI (XF 498 CNS): > 100 µM

O=c1[nH]c(=O)n(C2CC(O)C(CS)O2)cc1F (stereo unspecified)
TGI (MDA-N): > 100 µM | TGI (DLD-1 colon): > 100 µM | TGI (HOP-18 NSCLC): > 100 µM | TGI (HS 578T breast): > 100 µM | TGI (KM20L2 colon): > 100 µM | TGI (M19-MEL melanoma): > 100 µM | TGI (XF 498 CNS): > 100 µM

CCCCCCCCCCC(O)C1CCC(C2CCC(C(O)CCCCC(O)CCCCCC(O)CC3=CC(C)OC3=O)O2)O1 (stereo unspecified)
GI50 (MDA-N): > 25 µM | TGI (MDA-N): > 25 µM

COc1ccc(C(=O)/C=C/c2cccnc2Nc2cc(OC)c(OC)c(OC)c2)cc1
GI50 (HS 578T breast): 5.31 µM | TGI (HS 578T breast): 38.6 µM

CN1C(NC(=O)c2ccc(Cl)nc2)=NS(=O)(=O)c2cc(Cl)ccc21
GI50 (HS 578T breast): > 100 µM | TGI (HS 578T breast): > 100 µM

CC#CC(=O)Nc1ccccc1CC(c1c[nH]c2ccccc12)c1c[nH]c2ccccc12
TGI (DLD-1 colon): 36.3 µM | TGI (M19-MEL melanoma): 31.2 µM | TGI (LXFL 529 NSCLC): 38 µM

CN(C)C(=S)/N=c1\ss/c(=N\C(=S)N(C)C)n1-c1ccc2c(c1)OCO2
TGI (KM20L2 colon): > 100 µM

CCCNC(=S)N/N=C(\C)c1ccccn1
GI50 (HS 578T breast): 1.42 µM | TGI (HS 578T breast): > 100 µM

COc1cc(C(=O)O[C@H](C(N)=O)[C@]2(C)CO2)c2ccccc2c1
GI50 (HS 578T breast): 16.6 µM | TGI (HS 578T breast): 41 µM

CCC(C)(O)c1cn(-c2cccc(S(=O)(=O)O)c2)nn1 (stereo unspecified)
TGI (DLD-1 colon): > 100 µM | TGI (HOP-18 NSCLC): > 100 µM | TGI (KM20L2 colon): > 100 µM | TGI (LXFL 529 NSCLC): > 100 µM | TGI (XF 498 CNS): > 100 µM

Cc1[nH]c(N=Nc2ccccc2)nc1N=Nc1ccccc1
GI50 (HS 578T breast): 12.8 µM | TGI (HS 578T breast): > 34.8 µM

O=C(O)c1cc(N=Nc2ccc([As](=O)(O)O)cc2)ccc1O
TGI (MDA-N): > 100 µM | TGI (HS 578T breast): > 100 µM

CC(C)(C)C1=CC(=CC=C2C=CN(CCCCCCCCCCCO)C=C2)C=C(C(C)(C)C)C1=O
TGI (MDA-N): 3.04 µM | TGI (HS 578T breast): 4.23 µM

O=C(O)C1C(C(=O)O)C(C(=O)O)C1C(=O)O (stereo unspecified)
TGI (MDA-N): > 100 µM | TGI (HS 578T breast): > 100 µM

CCCCC/C=C/C/C=C/CCCCCCCC1=NC(C)(C)CN1C(C)C
GI50 (HS 578T breast): 1.84 µM | TGI (HS 578T breast): 3.67 µM

COc1ccc(-n2c(SCc3cc(OC)c(OC)c(OC)c3)nc3ccc(C)cc3c2=O)cc1
GI50 (HS 578T breast): 6.06 µM | TGI (HS 578T breast): > 100 µM

COc1ccc(/C(=N/Nc2ccc([N+](=O)[O-])cc2)Sc2cc(Cl)c(C)cc2S(N)(=O)=O)cc1
GI50 (HS 578T breast): 4.82 µM | TGI (HS 578T breast): 16 µM

CC(=O)NC(CCCN)C(=O)NCc1ccccc1 (stereo unspecified)
TGI (DLD-1 colon): > 100 µM | TGI (KM20L2 colon): > 100 µM | TGI (M19-MEL melanoma): > 100 µM | TGI (LXFL 529 NSCLC): > 100 µM | TGI (XF 498 CNS): > 100 µM

COc1ccc(OC)c(/C=C/NC=O)c1
TGI (DLD-1 colon): > 100 µM | TGI (HOP-18 NSCLC): > 100 µM | TGI (KM20L2 colon): > 100 µM | TGI (M19-MEL melanoma): > 100 µM | TGI (LXFL 529 NSCLC): > 100 µM | TGI (XF 498 CNS): > 100 µM

C[C@]12CC[C@@H]3c4ccc(O)cc4CC[C@H]3[C@@H]1CC[C@@H]2NS(=O)(=O)c1ccc(C(F)(F)F)cc1
GI50 (HS 578T breast): 2.23 µM | TGI (HS 578T breast): 6.01 µM

COC(=O)[C@]12CCC(C)(C)C[C@H]1C1=CC[C@@H]3[C@@]4(C)C/C(=C/c5cccnc5)C(=O)C(C)(C)[C@@H]4CC[C@@]3(C)[C@]1(C)CC2
GI50 (HS 578T breast): 22.7 µM | TGI (HS 578T breast): > 100 µM
